Common to all, as to test: cryo-EM structure, […] Å
Format in all cases: binding

Assay [1] deals with T1, human PCC holoenzyme (Homo sapiens, UniProt P05166).
T1 construct: gene PCCB; endogenous untagged holoenzyme, native purification from Expi 293F cells on Strep-Tactin XT via covalently linked biotin (K694 of PCCα); α6β6 dodecamer; acyl-CoA site between CT-C of one β and CT-N of another β; with Propionyl-CoA carboxylase alpha chain, mitochondrial
T1 sequence (P05166 29-539): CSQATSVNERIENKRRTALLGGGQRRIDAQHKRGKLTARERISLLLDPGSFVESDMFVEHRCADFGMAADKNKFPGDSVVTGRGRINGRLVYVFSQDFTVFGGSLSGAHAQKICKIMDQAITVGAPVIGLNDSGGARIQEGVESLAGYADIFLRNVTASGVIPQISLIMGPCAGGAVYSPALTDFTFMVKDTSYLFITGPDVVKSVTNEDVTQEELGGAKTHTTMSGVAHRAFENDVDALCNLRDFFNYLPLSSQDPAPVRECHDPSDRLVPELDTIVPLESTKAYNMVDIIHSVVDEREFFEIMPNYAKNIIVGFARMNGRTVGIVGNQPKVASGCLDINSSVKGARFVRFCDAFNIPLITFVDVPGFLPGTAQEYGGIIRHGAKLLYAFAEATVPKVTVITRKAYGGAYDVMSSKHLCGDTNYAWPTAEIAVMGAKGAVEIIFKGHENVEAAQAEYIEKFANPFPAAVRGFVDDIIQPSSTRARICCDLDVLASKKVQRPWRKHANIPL
T1 sequence (P05165 53-728 partner): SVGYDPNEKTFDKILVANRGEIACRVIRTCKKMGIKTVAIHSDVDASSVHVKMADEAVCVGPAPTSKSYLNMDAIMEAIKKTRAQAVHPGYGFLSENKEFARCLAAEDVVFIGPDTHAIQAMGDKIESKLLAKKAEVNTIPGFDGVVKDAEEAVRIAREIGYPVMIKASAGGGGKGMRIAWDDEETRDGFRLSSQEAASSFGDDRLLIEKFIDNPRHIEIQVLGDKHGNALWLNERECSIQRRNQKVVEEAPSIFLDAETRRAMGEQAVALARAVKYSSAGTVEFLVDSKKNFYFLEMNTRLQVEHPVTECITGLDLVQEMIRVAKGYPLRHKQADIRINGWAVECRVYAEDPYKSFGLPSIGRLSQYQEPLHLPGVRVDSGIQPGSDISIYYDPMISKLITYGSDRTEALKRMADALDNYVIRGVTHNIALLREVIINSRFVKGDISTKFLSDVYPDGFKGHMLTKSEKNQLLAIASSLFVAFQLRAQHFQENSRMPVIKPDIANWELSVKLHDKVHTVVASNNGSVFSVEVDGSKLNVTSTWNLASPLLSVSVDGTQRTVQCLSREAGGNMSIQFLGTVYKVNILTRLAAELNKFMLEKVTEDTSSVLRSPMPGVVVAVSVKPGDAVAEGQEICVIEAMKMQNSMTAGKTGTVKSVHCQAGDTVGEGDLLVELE
To be noted: 10 mM acetyl-CoA, 25 mM NaHCO3, 10 mM MgCl2, 10 mM ATP, pH 7.4; CT-domain active site; acyl group not resolved in map.

Assay [2] concerns the target T2, human MCC holoenzyme (Homo sapiens, UniProt Q9HCC0).
T2 construct: gene MCCC2; endogenous untagged holoenzyme, native purification from Expi 293F cells on Strep-Tactin XT via covalently linked biotin (K681 of MCCα); α6β6 dodecamer; acyl-CoA site between CT-C of one β and CT-N of another β; with Methylcrotonoyl-CoA carboxylase subunit alpha, mitochondrial
T2 sequence (Q9HCC0 23-563): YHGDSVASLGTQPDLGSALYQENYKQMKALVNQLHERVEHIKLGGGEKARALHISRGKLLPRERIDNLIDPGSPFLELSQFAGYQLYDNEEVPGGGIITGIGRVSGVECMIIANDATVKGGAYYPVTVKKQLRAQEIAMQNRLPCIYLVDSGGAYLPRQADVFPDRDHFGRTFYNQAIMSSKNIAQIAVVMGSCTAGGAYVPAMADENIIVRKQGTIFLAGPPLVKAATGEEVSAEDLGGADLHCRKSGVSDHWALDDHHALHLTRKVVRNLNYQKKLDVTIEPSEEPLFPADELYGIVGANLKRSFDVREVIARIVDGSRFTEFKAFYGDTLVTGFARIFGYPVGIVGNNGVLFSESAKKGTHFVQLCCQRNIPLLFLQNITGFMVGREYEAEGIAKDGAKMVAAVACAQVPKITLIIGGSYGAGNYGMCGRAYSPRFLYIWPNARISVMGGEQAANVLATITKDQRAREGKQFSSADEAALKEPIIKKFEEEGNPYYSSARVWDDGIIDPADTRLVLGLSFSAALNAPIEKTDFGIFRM
T2 sequence (Q96RQ3 42-725 partner): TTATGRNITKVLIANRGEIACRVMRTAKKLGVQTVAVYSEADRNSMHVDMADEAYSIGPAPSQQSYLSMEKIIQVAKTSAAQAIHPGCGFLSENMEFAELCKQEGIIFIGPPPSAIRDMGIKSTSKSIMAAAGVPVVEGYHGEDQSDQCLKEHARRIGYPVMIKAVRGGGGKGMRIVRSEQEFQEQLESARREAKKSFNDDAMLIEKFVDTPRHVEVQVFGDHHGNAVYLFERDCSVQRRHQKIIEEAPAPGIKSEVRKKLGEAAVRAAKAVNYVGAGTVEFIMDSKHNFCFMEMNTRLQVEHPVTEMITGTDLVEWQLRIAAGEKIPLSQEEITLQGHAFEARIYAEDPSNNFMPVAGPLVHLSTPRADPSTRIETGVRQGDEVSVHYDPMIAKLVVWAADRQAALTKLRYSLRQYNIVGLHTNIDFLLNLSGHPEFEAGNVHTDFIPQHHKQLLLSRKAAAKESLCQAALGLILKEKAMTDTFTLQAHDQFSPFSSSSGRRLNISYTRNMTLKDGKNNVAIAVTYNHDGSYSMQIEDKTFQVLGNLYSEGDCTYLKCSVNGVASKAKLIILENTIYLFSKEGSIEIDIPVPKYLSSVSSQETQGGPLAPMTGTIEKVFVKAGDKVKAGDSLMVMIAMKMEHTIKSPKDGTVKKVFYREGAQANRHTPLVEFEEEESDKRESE
Conditions: 10 mM acetyl-CoA, 25 mM NaHCO3, 10 mM MgCl2, 10 mM ATP, pH 7.4; CT-domain acyl-CoA pocket; not the natural substrate.

In assay [3] the target is T1, human PCC holoenzyme. To be noted: 10 mM propionyl-CoA, 25 mM NaHCO3, 10 mM MgCl2, 10 mM ATP, pH 7.4; CT-domain active site; acyl group not resolved in map.

Regarding `CC(=O)SCCNC(=O)CCNC(=O)[C@H](O)C(C)(C)COP(=O)(O)OP(=O)(O)OC[C@H]1O[C@@H](n2cnc3c(N)ncnc32)[C@H](O)[C@@H]1OP(=O)(O)O` [acetyl-CoA], in assay [1], the “cryo-EM structure, 3.38 Å” value was “The acetyl-CoA in the PCC-ACO structure has a binding mode similar to the propionyl-CoA”. Moreover, in assay [2], the “cryo-EM structure, 2.85 Å” value was “PCC and MCC holoenzymes in the acetyl-CoA-bound state (referred to as PCC-ACO and MCC-ACO)”.
For the compound `CCC(=O)SCCNC(=O)CCNC(=O)[C@H](O)C(C)(C)COP(=O)(O)OP(=O)(O)OC[C@H]1O[C@@H](n2cnc3c(N)ncnc32)[C@H](O)[C@@H]1OP(=O)(O)O` [propionyl-CoA], in assay [3], the “cryo-EM structure, 2.80 Å” value is “six propionyl-CoA molecules are observed binding to the six active sites of CT domains”.
